Measurements: patent US7799747B2, “Method of reducing surfactant damage using compositions comprising benefit agents of defined high polarity” (Conopco, Inc., priority 2005, dated 2010)

Legend:
[1] = molecular target: BSA (Bovine Serum Albumin) (Bos taurus, UniProt P02769); assay: Conductivity test: surfactant binding to BSA protein; settings: 10% SDS with 10% oil (1:1), 0.5% BSA in 0.02M acetate buffer pH~5.2, room temperature
Protocol: Conductance measurements were carried out at room temperature by use of a Thermo conductivity meter, model Orion 150+. Routinely, the titrations were performed by adding a controlled amount of 10% of stock surfactant solution under magnetic stirring into the 0.5% BSA (Bovine Serum Albumin) in 0.02M acetate buffer at pH˜5.2. Values of CMC (critical micellization concentration), CAC (critical aggregation concentration) and protein saturation point (PSP) were defined by the changing of the slope of the conductivity vs. surfactant concentration plots. The number of surfactants binding to each protein can be calculated by: {[PSP]−[CAC]}/{[protein]/Mwprotein}, where [protein] is the protein concentration.
In order to show the effect of benefit agent having different polarity on binding to protein molecule (a reflection of the harshness of surfactant; more surfactant binding to protein equal harsher and more damage expected), applicants tested surfactant binding of (1) surfactant alone and (2) of surfactant in combination with various oils/cosolvents (at 1:1 surfactant to oil ratio) to see level of (how many) surfactants binding per protein molecule (e.g., BSA) at saturation. The tests were done using conductivity test described in protocol and results are set forth below in Table 1.
Applicants conducted same test as in Examples 1 to 10, but used SLES/CAPB surfactant system instead of SDS.

BSA = BSA (Bos taurus, UniProt P02769); assay: Micro-DSC for protein denaturation; settings: denaturation enthalpy approaching zero, FIG. 5
Protocol: 1.2% of BSA acetate buffer solution was prepared (pH 5.2, IS 0.02). […] Then the BSA acetate solution was titrated with either oil, or surfactant, or oil/surfactant at 1:1 ratio. After each titration, a DSC measurement was performed.

pig skin = assay: HPLC test for surfactant deposition onto pig skin after wash; settings: SDS measured in combination with the benefit agent

BSA (Bovine Serum Albumin), sequence (P02769 25-607): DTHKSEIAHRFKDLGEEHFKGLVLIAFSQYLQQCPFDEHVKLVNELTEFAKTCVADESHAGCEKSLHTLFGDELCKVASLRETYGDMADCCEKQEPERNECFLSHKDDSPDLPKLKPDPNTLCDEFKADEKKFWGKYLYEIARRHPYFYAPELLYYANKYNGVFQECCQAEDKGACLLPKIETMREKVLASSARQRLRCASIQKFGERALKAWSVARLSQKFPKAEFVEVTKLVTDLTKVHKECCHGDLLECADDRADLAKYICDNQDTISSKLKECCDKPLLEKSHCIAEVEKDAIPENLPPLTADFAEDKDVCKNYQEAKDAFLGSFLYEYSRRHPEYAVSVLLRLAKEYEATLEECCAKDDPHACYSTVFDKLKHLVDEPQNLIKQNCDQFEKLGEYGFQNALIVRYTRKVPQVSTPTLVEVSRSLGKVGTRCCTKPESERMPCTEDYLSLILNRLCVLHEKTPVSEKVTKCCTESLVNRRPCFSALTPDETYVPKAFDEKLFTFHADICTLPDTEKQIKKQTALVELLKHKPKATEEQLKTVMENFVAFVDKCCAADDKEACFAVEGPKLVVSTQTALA
BSA, sequence (P02769 25-607): as above

CCCCCCCCCCCCOS(=O)(=O)[O-].[Na+] [10% SDS, Sodium dodecyl sulfate]
Saturated binding: No. of surfactant per BSA at saturation [1]: 220 | ratio surfactant to protein at which BSA is fully denatured at room temperature (BSA): about 1.2

CCCCCCCCCCCC [dodecane]
SDS deposition versus SDS alone (FIG. 1) (pig skin): deposition was about the same or higher
